Experimental data taken from ChEMBL document CHEMBL1201862, “PubChem BioAssay data set” (2004).
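Test compounds were applied to cells in 96-well plates for 48 hours at 5 doses. GI50 = concentration required for 50% inhibition of growth.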 Activity calls are given as the source filed them. Rule as the data show it: active = GI50 up to about 1.1 µM and inactive = higher.

Tests used:
Assay in all cases: NCI anticancer screen, dose series, 48 h
SNB-75 = system: SNB-75
OVCAR-4 = system: OVCAR-4
SK-OV-3 = system: SK-OV-3
HOP-62 = system: HOP-62
SN12C = system: SN12C
UO-31 = system: UO-31
LXFL 529 = system: LXFL 529
SK-MEL-5 = system: SK-MEL-5
OVCAR-3 = system: OVCAR-3
TK-10 = system: TK-10
NCI-H23 = system: NCI-H23
UACC-62 = system: UACC-62
KM-20L2 = system: KM-20L2
SNB-19 = system: SNB-19
DMS-114 = system: DMS-114
NCI-H522 = system: NCI-H522
HCT-116 = system: HCT-116
CCRF-CEM = system: CCRF-CEM
SK-MEL-2 = system: SK-MEL-2
XF498 = system: XF498
HT-29 = system: HT-29
NCI-H226 = system: NCI-H226
SW-620 = system: SW-620
DLD-1 = system: DLD-1
SK-MEL-28 = system: SK-MEL-28
SF-268 = system: SF-268
A498 = system: A498
IGROV-1 = system: IGROV-1
A549 = system: A549
HCT-15 = system: HCT-15
UACC-257 = system: UACC-257
KM12 = system: KM12
COLO 205 = system: COLO 205
SF-295 = system: SF-295
M14 = system: M14
HCC 2998 = system: HCC 2998
OVCAR-8 = system: OVCAR-8
DMS-273 = system: DMS-273
OVCAR-5 = system: OVCAR-5
Malme-3M = system: Malme-3M
786-0 = system: 786-0
SF-539 = system: SF-539
K562 = system: K562
ACHN = system: ACHN
U-251 = system: U-251
NCI-H460 = system: NCI-H460
HOP-92 = system: HOP-92
EKVX = system: EKVX
HL-60 = system: HL-60
HOP-18 = system: HOP-18
RXF 631 = system: RXF 631
SNB-78 = system: SNB-78
LOX IMVI = system: LOX IMVI
CAKI-1 = system: CAKI-1
RXF 393 = system: RXF 393
BT-549 = system: BT-549
PC-3 = system: PC-3
T47D = system: T47D
DU-145 = system: DU-145
SR = system: SR
MDA-N = system: MDA-N
RPMI-8226 = system: RPMI-8226
MDA-MB-435 = system: MDA-MB-435
Hs-578T = system: Hs-578T
MDA-MB-231 = system: MDA-MB-231
M19-MEL = system: M19-MEL
NCI/ADR-RES = system: NCI/ADR-RES
MOLT-4 = system: MOLT-4

SMILES: CCOC(=O)C1S/C(=N\c2ccc(OC)c(OC)c2)N=C1C (stereo not drawn)
- GI50 (SNB-75): 24.5 µM (inactive)
- GI50 (OVCAR-4): 40.2 µM (inactive)
- GI50 (SK-OV-3): 62.7 µM (inactive)
- GI50 (HOP-62): 92 µM (inactive)
- GI50 (SN12C): 44.1 µM (inactive)
- GI50 (UO-31): 34.6 µM (inactive)
- GI50 (LXFL 529): 33.3 µM (inactive)
- GI50 (SK-MEL-5): 18.4 µM (inactive)
- GI50 (OVCAR-3): 29.5 µM (inactive)
- GI50 (TK-10): 75.9 µM (inactive)
- GI50 (NCI-H23): 27.7 µM (inactive)
- GI50 (UACC-62): 26.3 µM (inactive)
- GI50 (KM-20L2): 27 µM (inactive)
- GI50 (SNB-19): 53.5 µM (inactive)
- GI50 (DMS-114): 28.5 µM (inactive)
- GI50 (NCI-H522): 17 µM (inactive)
- GI50 (HCT-116): 32.7 µM (inactive)
- GI50 (CCRF-CEM): 22.1 µM (inactive)
- GI50 (SK-MEL-2): 29.8 µM (inactive)
- GI50 (XF498): 29.2 µM (inactive)
- GI50 (HT-29): 18.8 µM (inactive)
- GI50 (NCI-H226): 64.1 µM (inactive)
- GI50 (SW-620): 42.7 µM (inactive)
- GI50 (DLD-1): 31.4 µM (inactive)
- GI50 (SK-MEL-28): 30.6 µM (inactive)
- GI50 (SF-268): 33.6 µM (inactive)
- GI50 (A498): 52.7 µM (inactive)
- GI50 (IGROV-1): 56.6 µM (inactive)
- GI50 (A549): 34.8 µM (inactive)
- GI50 (HCT-15): 28.6 µM
- GI50 (UACC-257): 41.7 µM (inactive)
- GI50 (KM12): 31.3 µM (inactive)
- GI50 (COLO 205): 69.3 µM (inactive)
- GI50 (SF-295): 36.5 µM (inactive)
- GI50 (M14): 46.7 µM (inactive)
- GI50 (HCC 2998): 51.9 µM (inactive)
- GI50 (OVCAR-8): 36.6 µM (inactive)
- GI50 (DMS-273): 38.4 µM (inactive)
- GI50 (OVCAR-5): 40.2 µM (inactive)
- GI50 (Malme-3M): 37.7 µM (inactive)
- GI50 (786-0): 29.2 µM (inactive)
- GI50 (SF-539): 53.2 µM (inactive)
- GI50 (K562): 36.6 µM (inactive)
- GI50 (ACHN): 33.6 µM (inactive)
- GI50 (U-251): 36.2 µM (inactive)
- GI50 (NCI-H460): 43.5 µM (inactive)
- GI50 (HOP-92): 37.2 µM (inactive)
- GI50 (EKVX): 94.8 µM (inactive)
- GI50 (HL-60): 19.2 µM (inactive)
- GI50 (HOP-18): > 100 µM (inactive)
- GI50 (RXF 631): 47.6 µM (inactive)
- GI50 (SNB-78): 48.5 µM (inactive)
- GI50 (LOX IMVI): 32.5 µM (inactive)
- GI50 (CAKI-1): 39.3 µM (inactive)
- GI50 (RXF 393): 29.9 µM (inactive)

SMILES: C=C(CN(C)C)C(=O)c1ccccc1
- GI50 (SNB-75): 17 µM (inactive)
- GI50 (OVCAR-4): 11.4 µM (inactive)
- GI50 (SK-OV-3): 21.7 µM (inactive)
- GI50 (HOP-62): 32.9 µM (inactive)
- GI50 (SN12C): 17.4 µM (inactive)
- GI50 (UO-31): 6.93 µM (inactive)
- GI50 (LXFL 529): 2.15 µM (inactive)
- GI50 (SK-MEL-5): 15.2 µM (inactive)
- GI50 (OVCAR-3): 3.63 µM (inactive)
- GI50 (TK-10): 4.49 µM (inactive)
- GI50 (NCI-H23): 19.4 µM (inactive)
- GI50 (UACC-62): 14.8 µM (inactive)
- GI50 (KM-20L2): 19.1 µM (inactive)
- GI50 (SNB-19): 30.9 µM (inactive)
- GI50 (DMS-114): 3.1 µM (inactive)
- GI50 (NCI-H522): 1.02 µM (active)
- GI50 (HCT-116): 5.51 µM (inactive)
- GI50 (CCRF-CEM): 0.631 µM (active)
- GI50 (SK-MEL-2): 15.2 µM (inactive)
- GI50 (BT-549): 11.2 µM (inactive)
- GI50 (XF498): 15.4 µM (inactive)
- GI50 (HT-29): 10.2 µM (inactive)
- GI50 (NCI-H226): 18.3 µM (inactive)
- GI50 (SW-620): 1.69 µM (inactive)
- GI50 (PC-3): 16 µM (inactive)
- GI50 (T47D): 2.25 µM (inactive)
- GI50 (DLD-1): 2.11 µM (inactive)
- GI50 (SK-MEL-28): 16.5 µM (inactive)
- GI50 (SF-268): 24.5 µM (inactive)
- GI50 (A498): 20.7 µM (inactive)
- GI50 (DU-145): 16.6 µM (inactive)
- GI50 (SR): 2.09 µM (inactive)
- GI50 (IGROV-1): 18.8 µM (inactive)
- GI50 (A549): 22.5 µM (inactive)
- GI50 (HCT-15): 10.2 µM
- GI50 (UACC-257): 11.5 µM (inactive)
- GI50 (KM12): 19.9 µM (inactive)
- GI50 (COLO 205): 1.46 µM (inactive)
- GI50 (SF-295): 31.4 µM (inactive)
- GI50 (M14): 2.31 µM (inactive)
- GI50 (MDA-N): 14.2 µM (inactive)
- GI50 (HCC 2998): 18 µM (inactive)
- GI50 (OVCAR-8): 19.5 µM (inactive)
- GI50 (DMS-273): 13.7 µM (inactive)
- GI50 (OVCAR-5): 16.5 µM (inactive)
- GI50 (Malme-3M): 2.41 µM (inactive)
- GI50 (786-0): 3.3 µM (inactive)
- GI50 (SF-539): 8.34 µM (inactive)
- GI50 (RPMI-8226): 4.13 µM (inactive)
- GI50 (K562): 2.07 µM (inactive)
- GI50 (MDA-MB-435): 14.1 µM (inactive)
- GI50 (ACHN): 2.7 µM (inactive)
- GI50 (Hs-578T): 26.2 µM (inactive)
- GI50 (U-251): 18.7 µM (inactive)
- GI50 (NCI-H460): 18.4 µM (inactive)
- GI50 (HOP-92): 2.06 µM (inactive)
- GI50 (MDA-MB-231): 15.1 µM (inactive)
- GI50 (EKVX): 21.8 µM (inactive)
- GI50 (M19-MEL): 9.33 µM (inactive)
- GI50 (NCI/ADR-RES): 32 µM (inactive)
- GI50 (HL-60): 0.577 µM (active)
- GI50 (MOLT-4): 1.91 µM (inactive)
- GI50 (HOP-18): 3.52 µM (inactive)
- GI50 (RXF 631): 24.1 µM (inactive)
- GI50 (SNB-78): 22.2 µM (inactive)
- GI50 (LOX IMVI): 7.93 µM (inactive)
- GI50 (CAKI-1): 4.75 µM (inactive)
- GI50 (RXF 393): 2.33 µM (inactive)
